Assay results from ChEMBL document CHEMBL5465560, “Selectivity Literature for EUbOPEN Chemogenomic Library” (2024).

Key:
[1] = biological target: Cyclin-dependent kinase 15 (Homo sapiens) (UniProt Q96Q40); test: Selectivity interaction (KinomeScan (DiscoverX)) EUB0000655a CDK15; conditions: at 10 µM
[2] = biological target: Serine/threonine-protein kinase pim-2 (Homo sapiens, UniProt Q9P1W9); test: Selectivity interaction (KinomeScan (DiscoverX)) EUB0000655a PIM2; conditions: at 10 µM
[3] = biological target: T1, Serine/threonine-protein kinase tousled-like 1 (Homo sapiens) (UniProt Q9UKI8); test: Selectivity interaction (KinomeScan (DiscoverX)) EUB0000666a TLK1; conditions: at 10 µM
T1 sequence (whole entry): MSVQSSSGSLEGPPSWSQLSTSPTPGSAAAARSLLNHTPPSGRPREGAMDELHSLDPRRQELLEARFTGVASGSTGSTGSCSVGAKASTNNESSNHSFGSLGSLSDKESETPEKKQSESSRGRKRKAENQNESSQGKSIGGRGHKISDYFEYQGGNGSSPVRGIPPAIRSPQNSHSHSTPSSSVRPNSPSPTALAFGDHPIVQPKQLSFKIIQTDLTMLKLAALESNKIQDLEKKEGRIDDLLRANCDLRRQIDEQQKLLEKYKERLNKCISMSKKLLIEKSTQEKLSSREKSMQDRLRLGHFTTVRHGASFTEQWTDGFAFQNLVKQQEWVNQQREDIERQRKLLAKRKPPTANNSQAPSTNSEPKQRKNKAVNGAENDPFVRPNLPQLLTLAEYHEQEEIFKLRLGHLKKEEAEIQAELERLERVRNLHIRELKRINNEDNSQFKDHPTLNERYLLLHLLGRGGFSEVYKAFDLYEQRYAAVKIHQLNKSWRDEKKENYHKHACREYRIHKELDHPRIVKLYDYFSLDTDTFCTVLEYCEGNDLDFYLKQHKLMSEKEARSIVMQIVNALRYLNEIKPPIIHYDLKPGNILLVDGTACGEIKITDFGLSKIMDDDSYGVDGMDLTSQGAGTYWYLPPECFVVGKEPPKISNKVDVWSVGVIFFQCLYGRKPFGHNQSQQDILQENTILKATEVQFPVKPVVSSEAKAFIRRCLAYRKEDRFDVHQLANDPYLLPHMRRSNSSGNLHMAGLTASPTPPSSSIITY

[4] = biological target: T2, Activin receptor type-1B (Homo sapiens) (UniProt P36896); conditions: at 10 µM
T2 sequence (whole entry): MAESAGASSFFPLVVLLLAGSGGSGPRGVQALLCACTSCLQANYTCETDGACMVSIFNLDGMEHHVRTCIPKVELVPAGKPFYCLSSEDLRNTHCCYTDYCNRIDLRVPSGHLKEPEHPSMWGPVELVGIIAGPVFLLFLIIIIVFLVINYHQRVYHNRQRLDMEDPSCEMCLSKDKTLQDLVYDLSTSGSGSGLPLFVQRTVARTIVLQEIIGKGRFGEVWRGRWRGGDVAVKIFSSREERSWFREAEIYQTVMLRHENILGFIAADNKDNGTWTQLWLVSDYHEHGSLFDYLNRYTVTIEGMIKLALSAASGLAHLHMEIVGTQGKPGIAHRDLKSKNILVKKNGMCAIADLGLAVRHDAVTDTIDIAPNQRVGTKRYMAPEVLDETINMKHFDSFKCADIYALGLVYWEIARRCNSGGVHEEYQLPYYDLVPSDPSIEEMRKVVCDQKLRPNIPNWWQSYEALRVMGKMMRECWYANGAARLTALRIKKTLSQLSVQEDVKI

[5] = biological target: T3, Interleukin-1 receptor-associated kinase 4 (Homo sapiens) (UniProt Q9NWZ3); test: Selectivity interaction (Kinase panel (Z-LYTE Assay)) EUB0001632a IRAK4; conditions: at 10 µM
T3 sequence (whole entry): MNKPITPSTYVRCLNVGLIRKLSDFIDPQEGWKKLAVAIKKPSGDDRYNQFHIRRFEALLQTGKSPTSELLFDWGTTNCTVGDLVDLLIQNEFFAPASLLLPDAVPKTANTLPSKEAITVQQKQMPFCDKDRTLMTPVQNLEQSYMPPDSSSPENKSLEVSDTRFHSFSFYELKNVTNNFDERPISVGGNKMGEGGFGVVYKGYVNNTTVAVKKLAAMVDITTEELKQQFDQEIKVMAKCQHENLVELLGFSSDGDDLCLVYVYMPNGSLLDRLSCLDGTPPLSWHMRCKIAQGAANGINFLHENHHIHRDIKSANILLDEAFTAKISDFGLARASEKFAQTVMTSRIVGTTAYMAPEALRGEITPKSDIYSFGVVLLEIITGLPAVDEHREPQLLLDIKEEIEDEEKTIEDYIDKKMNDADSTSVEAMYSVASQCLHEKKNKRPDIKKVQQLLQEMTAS

[6] = biological target: Protein kinase C delta type (Homo sapiens) (UniProt Q05655); test: Selectivity interaction (Kinase panel (Z-LYTE Assay)) EUB0001632a PRKCD; conditions: at 10 µM
[7] = biological target: Non-receptor tyrosine-protein kinase TYK2 (Homo sapiens, UniProt P29597)
[8] = biological target: T4, Ribosomal protein S6 kinase alpha-3 (Homo sapiens, UniProt P51812); test: (§1) Selectivity interaction (ActivX KiNativ screen (kinase selectivity in THP-1 cell lysates)) EUB0000639a RPS6KA3; format: subcellular; conditions: lysate, at 5 µM
[9] = biological target: T4, Ribosomal protein S6 kinase alpha-3; test: as §1; format: subcellular; conditions: lysate, at 5 µM; remark: listed apart in the source
[10] = biological target: Protein kinase C delta type (Homo sapiens) (UniProt Q05655); test: Selectivity interaction (SelectScreen profiling (Invitrogen)) EUB0000607a PRKCD; conditions: at 2 µM

T4 sequence (P51812 whole entry): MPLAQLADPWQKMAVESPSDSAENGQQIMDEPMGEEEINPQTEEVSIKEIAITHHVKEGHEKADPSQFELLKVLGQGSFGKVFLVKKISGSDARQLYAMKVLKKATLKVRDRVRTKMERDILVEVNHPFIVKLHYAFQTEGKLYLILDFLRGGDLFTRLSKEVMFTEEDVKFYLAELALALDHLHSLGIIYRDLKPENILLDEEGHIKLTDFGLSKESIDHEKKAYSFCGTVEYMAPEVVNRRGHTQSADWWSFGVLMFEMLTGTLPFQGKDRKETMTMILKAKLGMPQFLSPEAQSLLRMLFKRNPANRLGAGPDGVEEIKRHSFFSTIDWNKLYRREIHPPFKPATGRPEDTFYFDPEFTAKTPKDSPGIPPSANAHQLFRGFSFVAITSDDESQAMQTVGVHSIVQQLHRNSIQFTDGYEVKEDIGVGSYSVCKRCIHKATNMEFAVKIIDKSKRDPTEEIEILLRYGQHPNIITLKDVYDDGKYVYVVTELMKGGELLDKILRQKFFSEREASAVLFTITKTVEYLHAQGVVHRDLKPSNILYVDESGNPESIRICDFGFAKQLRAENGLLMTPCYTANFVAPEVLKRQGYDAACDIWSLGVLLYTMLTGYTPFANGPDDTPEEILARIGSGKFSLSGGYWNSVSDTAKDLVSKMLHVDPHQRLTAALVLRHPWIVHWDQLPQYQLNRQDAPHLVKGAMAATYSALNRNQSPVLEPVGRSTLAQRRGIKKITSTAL
Sequence of Protein kinase C delta type (Homo sapiens) (Q05655 whole entry, looked up): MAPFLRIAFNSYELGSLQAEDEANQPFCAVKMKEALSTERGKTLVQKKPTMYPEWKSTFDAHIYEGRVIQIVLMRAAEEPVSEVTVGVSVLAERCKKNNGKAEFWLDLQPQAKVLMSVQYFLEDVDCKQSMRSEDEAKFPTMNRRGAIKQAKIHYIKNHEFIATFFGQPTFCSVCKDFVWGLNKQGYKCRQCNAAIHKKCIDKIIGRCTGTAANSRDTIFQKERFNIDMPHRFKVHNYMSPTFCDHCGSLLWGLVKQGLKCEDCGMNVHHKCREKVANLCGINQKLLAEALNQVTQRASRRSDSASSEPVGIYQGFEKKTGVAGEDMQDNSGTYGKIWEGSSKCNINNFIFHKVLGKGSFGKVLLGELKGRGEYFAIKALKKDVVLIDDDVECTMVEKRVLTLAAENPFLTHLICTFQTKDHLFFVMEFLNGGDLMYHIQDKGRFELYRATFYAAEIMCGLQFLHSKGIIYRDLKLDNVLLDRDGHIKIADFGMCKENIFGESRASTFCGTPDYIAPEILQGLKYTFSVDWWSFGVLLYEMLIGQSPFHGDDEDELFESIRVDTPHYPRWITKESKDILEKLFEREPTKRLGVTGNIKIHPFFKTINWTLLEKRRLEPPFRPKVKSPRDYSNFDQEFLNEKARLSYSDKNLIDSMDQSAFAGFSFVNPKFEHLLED
Sequence of Serine/threonine-protein kinase pim-2 (Q9P1W9 whole entry, looked up): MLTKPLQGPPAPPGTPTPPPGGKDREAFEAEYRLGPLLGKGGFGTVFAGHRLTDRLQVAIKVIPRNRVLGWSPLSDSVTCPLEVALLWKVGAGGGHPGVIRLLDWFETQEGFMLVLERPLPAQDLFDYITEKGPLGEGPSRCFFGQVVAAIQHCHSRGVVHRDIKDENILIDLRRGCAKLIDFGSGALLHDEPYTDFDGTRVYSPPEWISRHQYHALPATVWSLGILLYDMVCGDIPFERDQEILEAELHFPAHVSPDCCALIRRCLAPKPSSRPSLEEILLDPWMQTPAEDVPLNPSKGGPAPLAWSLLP
Sequence of Cyclin-dependent kinase 15 (Homo sapiens) (Q96Q40 whole entry): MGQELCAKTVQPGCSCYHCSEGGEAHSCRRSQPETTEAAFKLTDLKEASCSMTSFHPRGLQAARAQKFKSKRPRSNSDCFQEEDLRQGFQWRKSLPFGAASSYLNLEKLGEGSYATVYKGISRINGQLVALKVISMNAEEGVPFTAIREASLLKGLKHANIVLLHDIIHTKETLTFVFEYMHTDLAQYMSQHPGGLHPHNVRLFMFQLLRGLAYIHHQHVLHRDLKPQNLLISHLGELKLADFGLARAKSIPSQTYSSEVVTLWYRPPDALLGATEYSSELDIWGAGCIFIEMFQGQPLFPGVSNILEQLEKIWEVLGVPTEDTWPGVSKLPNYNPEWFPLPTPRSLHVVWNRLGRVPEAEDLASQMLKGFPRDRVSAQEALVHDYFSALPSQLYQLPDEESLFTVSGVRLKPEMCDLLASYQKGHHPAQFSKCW
Sequence of Non-receptor tyrosine-protein kinase TYK2 (P29597 whole entry): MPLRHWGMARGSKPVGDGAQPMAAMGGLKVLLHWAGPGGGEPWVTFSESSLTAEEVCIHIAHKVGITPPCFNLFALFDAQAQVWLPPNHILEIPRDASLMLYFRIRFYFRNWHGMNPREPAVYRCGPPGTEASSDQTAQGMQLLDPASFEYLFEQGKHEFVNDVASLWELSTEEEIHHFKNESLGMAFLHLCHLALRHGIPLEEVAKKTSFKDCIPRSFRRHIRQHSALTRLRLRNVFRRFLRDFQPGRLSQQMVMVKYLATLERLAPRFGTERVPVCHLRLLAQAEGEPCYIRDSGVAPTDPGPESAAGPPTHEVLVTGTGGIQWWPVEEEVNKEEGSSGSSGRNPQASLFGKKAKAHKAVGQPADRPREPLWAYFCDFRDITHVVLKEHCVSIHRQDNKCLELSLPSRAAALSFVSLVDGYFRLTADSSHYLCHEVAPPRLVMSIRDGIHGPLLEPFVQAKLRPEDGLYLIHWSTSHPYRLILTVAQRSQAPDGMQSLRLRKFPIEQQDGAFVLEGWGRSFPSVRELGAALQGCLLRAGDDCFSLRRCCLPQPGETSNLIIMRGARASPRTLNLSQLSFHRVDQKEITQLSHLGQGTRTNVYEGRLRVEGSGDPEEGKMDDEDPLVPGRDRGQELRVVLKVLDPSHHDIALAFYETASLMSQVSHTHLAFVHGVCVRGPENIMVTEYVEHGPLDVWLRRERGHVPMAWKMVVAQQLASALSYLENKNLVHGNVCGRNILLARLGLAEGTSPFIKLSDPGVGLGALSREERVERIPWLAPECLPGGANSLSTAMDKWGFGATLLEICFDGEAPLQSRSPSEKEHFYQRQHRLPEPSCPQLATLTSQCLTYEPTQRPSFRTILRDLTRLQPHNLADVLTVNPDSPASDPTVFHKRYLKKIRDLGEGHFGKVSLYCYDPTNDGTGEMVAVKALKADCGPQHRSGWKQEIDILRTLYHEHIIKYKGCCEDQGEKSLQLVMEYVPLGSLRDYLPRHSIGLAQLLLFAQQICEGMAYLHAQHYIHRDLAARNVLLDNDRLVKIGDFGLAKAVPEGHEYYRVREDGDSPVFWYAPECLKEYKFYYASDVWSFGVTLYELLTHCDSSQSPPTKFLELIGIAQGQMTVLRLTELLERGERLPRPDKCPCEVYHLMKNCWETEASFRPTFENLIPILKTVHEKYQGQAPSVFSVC

`CN(C)CCOc1ccc(-c2nc(-c3ccncc3)c(-c3ccc4c(c3)CC/C4=N\O)[nH]2)cc1` gave a % of control [1] of 100% and a % of control [2] of 78%.
For `O=C(NOC[C@H](O)CO)c1ccc(F)c(F)c1Nc1ccc(I)cc1F`, the % of control [3] was 89%.
`Cc1cc([C@@H](C)Nc2ccccc2C(=O)O)c2nc(N3CCOCC3)cc(=O)n2c1` [AZD-6482] was tested, and the % of control [4] was 93%.
Molecule `Cn1cc(-n2cnc3c(NCc4nc5cc(Cl)c(Cl)cc5[nH]4)nc(N4CCOCC4)nc32)cn1` has a % of control [5] of 2.42% and a % of control [6] of -0.676%.
`CCc1cccc(CC)c1NC(=O)c1nn(C)c2c1CCc1cnc(Nc3ccc(C(=O)NC4CCN(C)CC4)cc3OC(F)(F)F)nc1-2` was tested, and the IC50 [7] was over 10 µM.
With `CC[C@@H]1[C@H](F)C(=O)N[C@@H]1COc1nccc2cc(C(N)=O)c(OC)cc12` [ZIMLOVISERTIB] the % of inhibition [8] was 2.9% and the % of inhibition [9] was 8%.
`CNC(=O)Nc1ccc(-c2nc(N3CC4CCC(C3)O4)c3cnn(C4CCC5(CC4)OCCO5)c3n2)cc1` was tested, and the % of inhibition [10] was 16%.
